Test results: ChEMBL document CHEMBL1154273, “Synthesis and antimalarial activity of new atovaquone derivatives” (Eur J Med Chem, 2009)

Each compound was assayed on Plasmodium falciparum (assay: Antimalarial activity against Plasmodium falciparum Nigerian assessed as [3H]hypoxanthine uptake after 48 hrs by liquid scintillation counting).
Assay type: functional, organism-based

Row | SMILES | IC50 [nM]
1 | C=C[C@H]1CN2CC[C@H]1C[C@H]2[C@H](O)c1ccnc2ccc(OC)cc12 [QUININE] | 180
2 | O=C(OC1=C([C@H]2CC[C@H](c3ccc(Cl)cc3)CC2)C(=O)c2ccccc2C1=O)c1ccc(F)cc1 | 1.6
3 | O=C1C(O)=C([C@H]2CC[C@H](c3ccc(Cl)cc3)CC2)C(=O)c2ccccc21 [ATOVAQUONE] | 0.75
4 | CCCCCCOC1=C([C@H]2CC[C@H](c3ccc(Cl)cc3)CC2)C(=O)c2ccccc2C1=O | 13.5
5 | O=C1C(OCc2ccccc2)=C([C@H]2CC[C@H](c3ccc(Cl)cc3)CC2)C(=O)c2ccccc21 | 7.65
6 | O=C(/C=C/c1ccccc1)OC1=C([C@H]2CC[C@H](c3ccc(Cl)cc3)CC2)C(=O)c2ccccc2C1=O | 1.45
7 | CCCCCCCCCOC1=C([C@H]2CC[C@H](c3ccc(Cl)cc3)CC2)C(=O)c2ccccc2C1=O | 14
8 | CCCCCCCCCC(=O)OC1=C([C@H]2CC[C@H](c3ccc(Cl)cc3)CC2)C(=O)c2ccccc2C1=O | 1.9
9 | CCCCCCCCCCCCCCCCCC(=O)OC1=C([C@H]2CC[C@H](c3ccc(Cl)cc3)CC2)C(=O)c2ccccc2C1=O | 52
10 | O=C(Cc1ccc(F)cc1)OC1=C([C@H]2CC[C@H](c3ccc(Cl)cc3)CC2)C(=O)c2ccccc2C1=O | 1.75
11 | CCCCCCCCCC(=O)OC1=C([C@H]2CC[C@H](c3ccc(Cl)cc3)CC2)C(=O)C(=O)c2ccccc21 | > 100
12 | CCCCCCCCCCOC1=C([C@H]2CC[C@H](c3ccc(Cl)cc3)CC2)C(=O)c2ccccc2C1=O | 11
13 | O=C(OC1=C([C@H]2CC[C@H](c3ccc(Cl)cc3)CC2)C(=O)c2ccccc2C1=O)c1ccccc1 | 1.25
14 | CCOC1=C([C@H]2CC[C@H](c3ccc(Cl)cc3)CC2)C(=O)c2ccccc2C1=O | 5.55
15 | CC(=O)OC1=C([C@H]2CC[C@H](c3ccc(Cl)cc3)CC2)C(=O)c2ccccc2C1=O | 1.5
16 | CCCCCCCC(=O)OC1=C([C@H]2CC[C@H](c3ccc(Cl)cc3)CC2)C(=O)c2ccccc2C1=O | 1.5
17 | CCCCCCCCCCCCCCCCCCOC1=C([C@H]2CC[C@H](c3ccc(Cl)cc3)CC2)C(=O)c2ccccc2C1=O | 32
18 | CCCCCCCCC(=O)OC1=C([C@H]2CC[C@H](c3ccc(Cl)cc3)CC2)C(=O)c2ccccc2C1=O | 3.1
19 | CCCCCC(=O)OC1=C([C@H]2CC[C@H](c3ccc(Cl)cc3)CC2)C(=O)c2ccccc2C1=O | 1.25
20 | O=C(Cc1ccc(Cl)cc1)OC1=C([C@H]2CC[C@H](c3ccc(Cl)cc3)CC2)C(=O)c2ccccc2C1=O | 1.65
